# According to the supplement of paper PMC10307832:
# Tests used:
# Test in all cases: relative viability (nuclei count vs DMSO), 5 days (fraction); higher = more cells survive
# [1] = compound: C1CNCCC1C2=CC(=NN2)C3=CC=NC=C3 + Cc1cc(Nc2cc(N3CCN(C)CC3)nc(Sc3ccc(NC(=O)C4CC4)cc3)n2)n[nH]1 [Tozasertib] (partner 0.1 µM)
# In short: (§1)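 Lung cancer cell lines, seeded in 1536-well plates, were treated the following day by pin tool with a single drug or with five library-drug doses (not always all listed) in √10 steps on top of a fixed anchor-drug dose. Cells were fixed and nuclei stained in one step after 5 days, and nuclei were counted. Relative viability is the nuclei count for treated wells divided by that for vehicle wells, reported as medians of duplicate plates.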
# [2] = compound: O[C@H]1CC[C@H](Nc2ncc3nc(Nc4c(F)cc(F)cc4F)n([C@H]4CCOC4)c3n2)CC1 [Tanzisertib] + CC(C)C[C@H](NC(=O)[C@H](Cc1ccccc1)NC(=O)c1cnccn1)B(O)O [Bortezomib] (partner 0.002 µM)
# In short: as §1
# [3] = compound: O[C@H]1CC[C@H](Nc2ncc3nc(Nc4c(F)cc(F)cc4F)n([C@H]4CCOC4)c3n2)CC1 [Tanzisertib] + CS(=O)(=O)N1CCN(Cc2cc3nc(-c4cccc5[nH]ncc45)nc(N4CCOCC4)c3s2)CC1 [Pictilisib] (partner 1 µM)
# In short: as §1
# [4] = compound: O[C@H]1CC[C@H](Nc2ncc3nc(Nc4c(F)cc(F)cc4F)n([C@H]4CCOC4)c3n2)CC1 [Tanzisertib] + O=C(c1cc(Cc2n[nH]c(=O)c3ccccc23)ccc1F)N1CCN(C(=O)C2CC2)CC1 [Olaparib] (partner 8 µM)
# In short: as §1
Cell Line,relative viability ([1]; first compound 0.08 µM),relative viability ([1]; first compound 0.8 µM),relative viability ([1]; first compound 2.53 µM),relative viability ([1]; first compound 8 µM),relative viability ([2]; first compound 0.08 µM),relative viability ([2]; first compound 0.253 µM),relative viability ([2]; first compound 0.8 µM),relative viability ([2]; first compound 2.53 µM),relative viability ([2]; first compound 8 µM),relative viability ([3]; first compound 0.08 µM),relative viability ([3]; first compound 0.253 µM),relative viability ([3]; first compound 0.8 µM),relative viability ([3]; first compound 2.53 µM),relative viability ([3]; first compound 8 µM),relative viability ([4]; first compound 0.08 µM),relative viability ([4]; first compound 0.253 µM),relative viability ([4]; first compound 0.8 µM),relative viability ([4]; first compound 2.53 µM),relative viability ([4]; first compound 8 µM)
PC-14,0.648,0.589,0.661,0.542,1.05,0.878,0.879,1.01,0.585,0.778,0.594,0.799,0.693,0.203,0.343,0.228,0.402,0.271,0.246
NCI-H2085,0.934,–,0.847,0.832,1.11,1.08,0.992,1.07,1.09,0.474,0.454,0.465,0.478,0.435,–,0.763,0.745,0.803,0.76
HCC-78,0.439,0.325,0.459,0.392,0.485,0.436,0.548,0.416,0.62,0.215,0.175,0.23,0.219,0.192,0.922,0.73,0.854,0.852,0.622
NCI-H2126,0.674,0.974,0.916,0.858,1.11,1.18,1.09,1.11,1.2,0.522,0.464,0.503,0.494,0.52,0.913,0.919,0.987,0.873,0.938
H3255,0.709,0.795,0.806,0.606,0.829,0.796,0.819,0.845,0.427,0.548,0.452,0.487,0.457,0.253,0.611,0.521,0.661,0.62,0.481
HCC-15,0.517,0.372,0.484,0.355,1.25,1.08,1.09,1.01,1,0.836,0.651,0.786,0.698,0.494,0.779,0.742,0.791,0.713,0.727
NCI-H661,0.38,0.367,0.356,0.345,0.859,0.64,0.874,0.567,0.795,0.464,0.389,0.365,0.447,0.35,0.807,0.756,0.74,0.786,0.724
NCI-H2009,0.713,0.74,0.689,0.696,1.34,1,1.01,1.13,0.968,0.965,0.794,0.972,0.882,0.563,0.634,0.734,0.743,0.73,0.752
HCC-44,0.873,1.32,1.1,0.897,0.934,0.938,0.912,0.936,0.999,0.638,0.701,0.565,0.442,0.569,0.99,1.08,0.965,1.03,1.11
